In assay [1] the test system is SU-DHL cell line (SU DHL 8). Description: WST 1 colorimetric cell proliferation assay, SU-DHL cell line. The assay is classed as cell-based, human. Particulars: for effect of valproic acid pretreatment on cell proliferation (percent growth of treated cells): 48 h pretreatment 1 mM valproic acid. The procedure: (§1) In this example the combined effect of valproic acid and three different compounds as well as the single treatment on the growth of two cell lines were measured by WST 1 assay.
(§2) The cell lines used where: • SU DHL 8: human B cell lymphoma, and • WSU NHL: human B cell lymphoma
The WST 1 colorimetric assay comprised providing suspended cells (5000 cells/well) in the wells of a well plate. Tetrazolium salt (WST 1) was added to the cells and thereby colored the fluid in the wells red. Live cells reduce the tetrazolium salt via intermediate electron acceptors and forms a formazan product and the fluid in the cells turn yellow. The extent of color change reflects the proliferation of the cells and is read out as optical absorbance at 420 nm. […] Additionally, 10% DMSO was used as positive control.
(§3) The cells of each cell line were incubated in a pretreatment step with 1 mM valproic acid for 48 hours followed by a treatment step with the respective compound for 24 or 48 hours, as shown in table 1 below: […]

A further assay has as its system WSU-NHL cell line. Description: WST 1 colorimetric cell proliferation assay, WSU-NHL cell line. The assay is classed as cell-based, human. The note with it: for effect of valproic acid pretreatment on cell proliferation (percent growth of treated cells): 48 h pretreatment 1 mM valproic acid. How it is done:
as §1, §2
The WST 1 colorimetric assay comprised providing suspended cells (5000 cells/well) in the wells of a well plate. Tetrazolium salt (WST 1) was added to the cells and thereby colored the fluid in the wells red. Live cells reduce the tetrazolium salt via intermediate electron acceptors and forms a formazan product and the fluid in the cells turn yellow. The extent of color change reflects the proliferation of the cells and is read out as optical absorbance at 420 nm. Both cell lines were determined to be able to tolerate concentrations of up to 1% Dimethyl sulfoxide (DMSO), and this DMSO concentration was used as negative control. Additionally, 10% DMSO was used as positive control.
as §3

Where [2] appears, read: FIG. 2B, 5 μM of compound 48 h after 48 h 1 mM valproic acid, normalized to untreated control cells.

Regarding `Cn1c(CCCC(=O)O)nc2cc(N(CCCl)CCCl)ccc21` [bendamustine, 1H-Benzimidazole-2-butanoic acid, 5-[bis(2-chloroethyl)amino]-1-methyl-], the “cell proliferation, combination with VPA” value in assay [1] (FIG. 4A, 25 μM bendamustine 48 h after 48 h 1 mM VPA, normalized to 1/DMSO treated cells) is listed as “killed all cancer cells”. Further, the “effect on cell proliferation after valproic acid pretreatment” value (from here on “effect on cell proliferation”) is listed as “Especially significant effects” in the assay on WSU-NHL cell line (FIG. 1B, 5 μM bendamustine 24 h after 48 h 1 mM valproic acid, normalized to untreated control cells) and “Especially significant effects” in the assay with WSU-NHL cell line (setting [2]).
Take `N.N.O=C([O-])C1(C(=O)[O-])CCC1.[Pt+2]` [carboplatin, Platinum, diammine[1,1-cyclobutanedicarboxylato(2-)-KO,KO″ ]-, (SP-4-2)-]: the “cells left alive, combination with VPA” value in assay [1] (FIG. 4B, 5 μM carboplatin 48 h after 48 h 1 mM VPA, normalized to untreated control cells) was “about 10 cells”; in assay [1] (FIG. 4B, 25 μM carboplatin 48 h after 48 h 1 mM VPA, normalized to untreated control cells), “about 10 cells”. Besides, in the assay with WSU-NHL cell line (setting [2]), the “effect on cell proliferation” value is given as “Especially significant effects”.
`Nc1ccn([C@@H]2O[C@H](CO)[C@@H](O)C2(F)F)c(=O)n1` [gemcitabine, Cytidine, 2′-deoxy-2′,2′-difluoro-]: the “cell proliferation, combination with VPA” value in assay [1] (FIG. 4A, 25 nM gemcitabine 48 h after 48 h 1 mM VPA, normalized to 1/DMSO treated cells) is given as “killed all cancer cells”. Moreover, the “effect on cell proliferation” value is given as “Especially significant effects” in the assay with WSU-NHL cell line (FIG. 1B, 5 nM gemcitabine 24 h after 48 h 1 mM valproic acid, normalized to untreated control cells) and “Especially significant effects” with WSU-NHL cell line (FIG. 2B, 5 nM gemcitabine 48 h after 48 h 1 mM valproic acid, normalized to untreated control cells).
`CCCC(CCC)C(=O)O` [valproic acid]: the “effect of valproic acid pretreatment on cell proliferation (percent growth of treated cells)” value in assay [1] (FIG. 3A, then 24 h treatment with the respective compounds, normalized to 1% DMSO treated cells) is on record as “increased the effect of the 24 h treatment”; in assay [1] (FIG. 3B, then 24 h treatment with the respective compounds, normalized to untreated control cells) it was “increased the effect of the 24 h treatment”; in assay [1] (FIG. 4A, then 48 h treatment with the respective compounds, normalized to 1/DMSO treated cells), “increased the effect of the 48 h treatment”; in assay [1] (FIG. 4B, then 48 h treatment with the respective compounds, normalized to untreated control cells), “increased the effect of the 48 h treatment”; with WSU-NHL cell line (FIG. 1A, then 24 h treatment with bendamustine, gemcitabine or carboplatin, normalized to 1% DMSO treated cells), “increased the effect of the 24 h treatment”; in the assay on WSU-NHL cell line (FIG. 1B, then 24 h treatment with the respective compounds, normalized to untreated control cells), “increased the effect of the 24 h treatment”. Moreover, the “effect of valproic acid pretreatment on cell proliferation (percent growth of treated cells)” value in the assay with WSU-NHL cell line (FIG. 2A, then 48 h treatment with the respective compounds, normalized to 1/DMSO treated cells) is reported as “increased the effect of the 48 h treatment”; in the assay with WSU-NHL cell line (FIG. 2B, then 48 h treatment with the respective compounds, normalized to untreated control cells) it was “increased the effect of the 48 h treatment”.

The record behind these values is US20250302781A1, “METHOD FOR PRETREATING RELAPSING CANCER” (priority 2022, published 2025).
